Source: patent US20210113685A1, “POLYPEPTIDE DRUG AGAINST HEPATITIS B VIRUS PROTEIN” (priority 2011, published 2021)
Where no end group is shown, it is not given here.

Columns and labels:
[1] = tested on: HepG2; experiment: MTT assay, HepG2 cells; format: cell-based; conditions: HepG2 (no HBx); synthesized polypeptide 0.1-100 μM, 48 hr
Method: (§1) (1) Plate the cells: suspended the cells at exponential phase (the cells in the above Table 1) in RPMI1640 or DMEM medium with 10% FBS, and plated 4000-5000 cells in a 96-well plate with 100 μl per well; Culture the cells: Within 12 hr for adhesion of cultured cells, different amount of polypeptides plasmids from Step A (0.25 μg, 0.5 μg and 0.75 μg) or different concentrations of synthesized polypeptides from Example 1 (0.1 μM, 1 μM, 10 μM and 100 μM) were transfected with 8 wells for each concentration, and were incubated for 48 hr in the same condition. 0.3 μg pEGFP-C2 plasmids and 1 μg p-Anti-HBxP1 # were cotransfected, and using a fluorescence microscope to check for cells containing the GFP plasmid after 24 hr to make sure the percentage of cells that contain GFP is over 70%;
(§2) (2) Coloration: added 20 μl MTT solution (5 mg/ml MTT in PBS buffer (pH7.4)) for each well;
(§3) (3) Incubated for 4 hr, and carefully aspirate off the supernatant from the wells. Added 150 μl DMSO into each well, shaking for 10 min until the crystals dissolved;
(§4) (4) Comparison: Read in an ELISA reader at 490 nm to measure the absorbance for each well. Results were calculated by using Student's t-test.

[2] = Polypeptide drugs acute toxicity test; format: in vivo, Kunming white mice; conditions: 1 g/kg tail intravenous injection; observed 24 hr
Method: Control group and experimental group contained 10 Kunming white mice, with 5 females and 5 males, respectively. Experimental group injected Anti-HBxP1 # with the concentration of 1 g/kg ([…] dried polypeptide drug solved in 0.124 ml ddH2O) by tail intravenous injection; control group, injected 0.25 ml ddH2O. Consecutively observed the mice for 24 hr after injection.

[3] = tested on: NF-κB promoter (HBx-activated); experiment: Dual-luciferase reporter gene analysis (pGL3-NF-κB); format: cell-based; conditions: incubation with synthesized polypeptide 0.1-100 μM, 24 hr
Text: (§5) Two cell lines were adopted in the experiment. One is constitutive expression HBx of hepatoma cell HepG2 (stable transfected hepatoma cell HepG2 expressing HBx), and the other one is constitutive expression Hepatitis B virus complete genome of hepatoma cell HepG2.2.15 (stable transfected hepatoma cell HepG2 expressing HBV complete genome). Because HBx functions to activate the transcription factor NF-κB, it is possible to detect the inhibition of HBx at the molecular level by reporter gene-based assays. Due to the role of HBx on promoting the growth and proliferation of hepatoma cells, it can test the effects of the polypeptides on the proliferation of HepG2-X cell and HepG2.2.15 cell by (3-(4,5-dimethylthiazol-2-yl)-2,5-diphenyltetrazolium bromide (MTT).
(1) Plated the cells at exponential phase (the cells in the above Table 1) at a density 0.75×10^5 cells/ml in a 24-well plate with 500 μl per well. Ideally cells should be 90% confluent prior to transfection;
(2) Reporter gene vectors containing promoter (pGL3-NF-κB, 0.3 μg, purchased from Yuanhaoping (Tianjin) Biological Technology Co., Ltd) were transfected into cells by using lipofectamine transfection reagent, and Renilla luciferase expressing vectors (pRL-TK, 0.1 μg, purchased from Promega) were transfected as controls. Simultaneously, different amount of polypeptides plasmids from Step A (0.25 μg, 0.5 μg and 0.75 μg) or different concentrations of synthesized polypeptides from Example 1 (0.1 μM, 1 μM, 10 μM and 100 μM) were added, and repeated each concentration in three wells;
(3) After transfection for 48 hr (or after incubation with artificial synthesized polypeptide Anti-HBxP1 # for 24 hr), washed the cells with PBS for three times;
(4) Added 100 μl 1× Passive Lysis Buffer (PLB) into transfected cells per well, and lysed the cell at room temperature for 15 min. Transferred the cell lysate to a 1.5 ml Eppendorf (EP) tube;
(5) Centrifuged at 12,000 rpm for 30 min, and transferred the supernatant to a fresh EP tube;
(6) Added an aliquot of cell lysate into each EP tube with 100 μl Luciferase Assay Buffer II (LARII), and mixed well;
(7) Immediately put the EP tubes into a Luminometer (manufactured by Turner Biosystems). Within 10 sec after 2 sec balance, measured the luminescence.
(8) Added 100 μl fluorescence bleacher. Firefly luciferase was quenched, while Renilla luciferase started to react.
(9) Measured the luminescence within 10 sec.
The relative activity was the ratio of the value of the first luminescence to the value of the second luminescence.
Results shown are representative of three independent experiments according to Mean±SD, and statistical significance was calculated using Student's t test.

[4] = tested on: HepG2.2.15 cells; experiment: MTT assay, HepG2.2.15 cells; format: cell-based; conditions: synthesized polypeptide 0.1-100 μM, 48 hr
Text: as §5, with “Due to the role of HBx on promoting the growth and proliferation of hepatoma cells, it can test the effects of the polypeptides on the proliferation of HepG2-X cell and HepG2.2.15 cell by (3-(4,5-dimethylthiazol-2-yl)-2,5-diphenyltetrazolium bromide (MTT).” left out
as §1, with “70%; […]” for “70%;”
(§6) (4) Comparison: Read in an ELISA reader at 490 nm to measure the absorbance for each well. […]

[5] = tested on: HepG2.2.15 cells; experiment: Inoculation experiment in nude mice, HepG2.2.15 cells; format: in vivo
Method: (§7) Suspended the HepG2-X or HepG2.2.15 cells at exponential phase by treating with trypsin, and counted the number of cells to dilute to 1×10^7 cells/ml with physiological saline, and then store in the ice water. 12 Mice used were 4- to 6-week-old BALB/C females, and were randomly divided into two groups: @Control group, injected 0.2 ml diluted cells to the armpit of left forelimb for each mouse, and only injected 0.5 ml ddH2O (without polypeptide drugs); 0 experimental group (the treatment dose was 10 mg/kg), injected 0.2 ml diluted cells to the armpit of left forelimb for each mouse, and within 7 days after the injection, tumor volume (V=L×W^2×0.5) reached to 100 mm^3. And then, injected the above mentioned polypeptide drugs (dried polypeptide drug solved in 0.5 ml ddH2O) once in two day, total 10 times, and recorded the tumor volume before injection. Within 24 hr after the last dose, weighted the mice, and killed the mice to weight the tumor tissue, anti-tumor rate was calculated as follow: […]

[6] = tested on: HepG2-X cells; experiment: Inoculation experiment in nude mice, HepG2-X cells; format: in vivo
Method: as §7

[7] = tested on: HepG2-X cells; experiment: MTT assay, HepG2-X cells; format: cell-based; conditions: synthesized polypeptide 0.1-100 μM, 48 hr
Text: as §5, with “Due to the role of HBx on promoting the growth and proliferation of hepatoma cells, it can test the effects of the polypeptides on the proliferation of HepG2-X cell and HepG2.2.15 cell by (3-(4,5-dimethylthiazol-2-yl)-2,5-diphenyltetrazolium bromide (MTT).” left out
as §1, with “70%; […]” for “70%;”
as §6

[8] = tested on: L-O2; experiment: MTT assay, L-O2 cells; format: cell-based; conditions: L-O2 (no HBx); synthesized polypeptide 0.1-100 μM, 48 hr
Method: as §1, §2, §3, §4

[9] = tested on: L-O2-X cells; experiment: MTT assay, L-O2-X cells; format: cell-based; conditions: synthesized polypeptide 0.1-100 μM, 48 hr
Method: as §1, §2, §3, §4

Sequence: GSAVMFSSKERG [Anti-HBxP1 #]
- growth of the hepatoma cells (MTT assay) [1]: no effect
- behaviors of mice (acute toxicity) [2]: do not have abnormal behaviors
- changes in weight compared with control group (acute toxicity) [2]: no abnormal changes in weight
- activity of NF-κB promoter ([3]; HepG2 (no HBx)): no effect
- activity of NF-κB promoter ([3]; HepG2-X cells): inhibits
- activity of NF-κB promoter ([3]; HepG2.2.15 cells): inhibits
- activity of NF-κB promoter ([3]; L-O2 (no HBx)): no effect
- activity of NF-κB promoter ([3]; L-O2-X cells): inhibits
- growth of the hepatoma cells (MTT assay) [4]: inhibits
- growth and proliferation of HepG2.2.15 cells in nude mice ([5]; 10 mg/kg, P<0.01): inhibits
- Anti-tumor rate (%) ([5]; HepG2.2.15 tumor, 10 mg/kg once in two day, 10 times): 41.27%
- Tumor weight (X ± S, g) ([5]; HepG2.2.15 tumor, 10 mg/kg once in two day, 10 times, within 24 hr after last dose): 0.37 ± 0.19 g
- Weight (X ± S, g) After dose ([5]; mouse body weight after 10 mg/kg once in two day, 10 times, HepG2.2.15 tumor): 21.08 ± 0.81 g
- Weight (X ± S, g) Before dose ([5]; mouse body weight before dose, HepG2.2.15 tumor, experimental group): 15.17 ± 1.17 g
- growth and proliferation of HepG2-X cells in nude mice ([6]; 10 mg/kg, P<0.01): inhibits
- Anti-tumor rate (%) ([6]; HepG2-X tumor, 10 mg/kg once in two day, 10 times): 60.22%
- Tumor weight (X ± S, g) ([6]; HepG2-X tumor, 10 mg/kg once in two day, 10 times, within 24 hr after last dose): 0.37 ± 0.14 g
- Weight (X ± S, g) After dose ([6]; mouse body weight after 10 mg/kg once in two day, 10 times, HepG2-X tumor): 21.08 ± 0.74 g
- Weight (X ± S, g) Before dose ([6]; mouse body weight before dose, HepG2-X tumor, experimental group): 15.75 ± 0.99 g
- growth of the hepatoma cells (MTT assay) [7]: inhibits
- growth of the hepatoma cells (MTT assay) [8]: no effect
- growth of the hepatoma cells (MTT assay) [9]: inhibits
